Measured values: US10793553B2, “TLR7/8 antagonists and uses thereof” (Merck Patent GmbH, priority 2017, dated 2020)

Key:
[1] = target: T1, TLR8 (Homo sapiens, UniProt Q9NR97); test: HEK TLR8 Cell Assay; format: cell-based; settings: TLR8/NFKb HEK cells, R848 agonist 30 uM final, Steady-Glo readout
T1 construct: expressed in transfected cells; host or cells: HEK cells carrying TLR8 and an NFkB luciferase reporter
T1 sequence (Q9NR97 27-1041): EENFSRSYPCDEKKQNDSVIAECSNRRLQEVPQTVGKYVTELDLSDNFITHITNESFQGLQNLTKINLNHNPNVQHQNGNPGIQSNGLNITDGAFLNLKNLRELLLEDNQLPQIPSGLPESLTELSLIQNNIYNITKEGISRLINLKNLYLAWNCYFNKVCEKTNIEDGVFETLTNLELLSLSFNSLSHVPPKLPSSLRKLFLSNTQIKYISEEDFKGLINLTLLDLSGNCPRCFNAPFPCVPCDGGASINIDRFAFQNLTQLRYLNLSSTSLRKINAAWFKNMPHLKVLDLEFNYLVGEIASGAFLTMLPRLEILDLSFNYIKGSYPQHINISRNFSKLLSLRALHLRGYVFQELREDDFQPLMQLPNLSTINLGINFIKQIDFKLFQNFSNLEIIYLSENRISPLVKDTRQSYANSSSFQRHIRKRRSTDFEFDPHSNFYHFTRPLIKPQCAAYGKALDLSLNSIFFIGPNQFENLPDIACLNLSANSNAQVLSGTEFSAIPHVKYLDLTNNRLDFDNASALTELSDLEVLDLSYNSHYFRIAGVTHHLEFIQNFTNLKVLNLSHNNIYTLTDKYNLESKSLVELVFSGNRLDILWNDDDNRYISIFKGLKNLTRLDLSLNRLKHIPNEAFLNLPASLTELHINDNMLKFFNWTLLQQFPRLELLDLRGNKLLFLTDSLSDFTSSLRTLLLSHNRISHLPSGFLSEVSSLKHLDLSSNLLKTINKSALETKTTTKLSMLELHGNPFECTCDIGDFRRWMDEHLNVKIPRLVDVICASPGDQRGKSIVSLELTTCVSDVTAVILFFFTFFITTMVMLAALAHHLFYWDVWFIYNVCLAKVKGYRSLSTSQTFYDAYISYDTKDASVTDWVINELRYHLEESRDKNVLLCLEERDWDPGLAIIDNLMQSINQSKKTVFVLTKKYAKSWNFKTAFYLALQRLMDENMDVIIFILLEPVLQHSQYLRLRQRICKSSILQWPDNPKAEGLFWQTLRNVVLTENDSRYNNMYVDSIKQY
Method: Example 25: HEK TLR8 Cell Assay
(§1) Into 384 CulturePlates (Corning 3707) was placed 5000 c/w of TLR8/NFKb HEK cells in 30 uL DMEM without Phenol red (gibco #31053) and 10% FCS-HI, 2 mM L-Glutamine, 1% Pen/Strept. The cells are incubated for 24 h at 37 degrees Celsius, and 10% carbon dioxide. Dispense 3 uL of controls, standards, and compounds to wells, incubate for 30 min then add 3 uL of R848 (30 uM final concentration) agonist in 20 mM Hepes. Incubate for 5 hours and then allow to stand at room temperature for 15 min. Add 10 uL of Steady-Glo substrate reagent and shake assay plate for 5 min at 1500 rpm. Let the assay plate sit for 30 min at room temperature and then read plate on EnVision.

[2] = target: T2, TLR7 (Homo sapiens, UniProt Q9NYK1); test: HEK TLR7 Cell Assay; format: cell-based; settings: TLR7/NFKb HEK cells, R848 agonist 10 uM final, Steady-Glo readout
T2 construct: expressed in transfected cells; host or cells: HEK cells carrying TLR7 and an NFkB luciferase reporter
T2 sequence (Q9NYK1 27-1049): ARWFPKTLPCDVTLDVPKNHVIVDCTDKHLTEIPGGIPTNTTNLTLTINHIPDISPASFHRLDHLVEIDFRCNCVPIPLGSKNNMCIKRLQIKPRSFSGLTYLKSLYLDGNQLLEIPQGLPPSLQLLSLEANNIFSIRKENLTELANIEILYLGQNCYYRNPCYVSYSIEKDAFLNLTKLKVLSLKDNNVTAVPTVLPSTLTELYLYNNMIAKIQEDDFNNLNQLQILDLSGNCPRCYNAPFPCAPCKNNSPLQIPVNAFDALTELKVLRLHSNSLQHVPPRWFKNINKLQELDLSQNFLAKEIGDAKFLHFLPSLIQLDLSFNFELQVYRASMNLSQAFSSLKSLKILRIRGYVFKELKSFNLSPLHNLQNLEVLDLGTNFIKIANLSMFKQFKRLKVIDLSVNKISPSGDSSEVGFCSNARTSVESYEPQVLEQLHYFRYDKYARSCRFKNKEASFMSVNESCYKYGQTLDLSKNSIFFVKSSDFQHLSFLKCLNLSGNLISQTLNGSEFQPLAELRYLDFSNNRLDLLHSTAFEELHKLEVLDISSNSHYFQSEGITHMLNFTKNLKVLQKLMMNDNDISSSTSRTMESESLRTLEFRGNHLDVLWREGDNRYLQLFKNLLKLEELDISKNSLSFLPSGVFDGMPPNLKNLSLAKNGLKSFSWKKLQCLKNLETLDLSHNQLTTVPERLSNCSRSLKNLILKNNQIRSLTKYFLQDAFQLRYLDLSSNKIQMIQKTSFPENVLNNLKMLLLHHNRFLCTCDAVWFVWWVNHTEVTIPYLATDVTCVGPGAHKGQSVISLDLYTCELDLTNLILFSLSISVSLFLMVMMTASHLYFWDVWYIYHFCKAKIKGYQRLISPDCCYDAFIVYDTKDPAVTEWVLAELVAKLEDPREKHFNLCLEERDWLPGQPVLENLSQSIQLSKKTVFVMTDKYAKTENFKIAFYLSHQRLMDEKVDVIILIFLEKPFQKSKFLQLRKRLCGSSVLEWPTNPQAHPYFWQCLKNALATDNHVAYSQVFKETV
Method: Example 24: HEK TLR7 Cell Assay
as §1, with “TLR7/NFKb” for “TLR8/NFKb”, “(10” for “(30”

Structure (SMILES)	IC50 [1] [nM]	IC50 [2] [nM]
C[C@@H]1CN(c2ccc(C#N)c3nccnc23)C[C@@H]1NC(=O)CC1CCCN(C)C1 (single isomer, unassigned) [Compound 3]	< 1000	< 1000
C[C@@H]1CN(c2ccc(C#N)c3nccnc23)C[C@@H]1NC(=O)CC1CCCN(C)C1 (single isomer, unassigned) [Compound 4]	< 1000	< 1000
C[C@@H]1CN(c2ccc(C#N)c3nccnc23)C[C@@H]1NC(=O)CC1CCN(C)C1 (single isomer, unassigned) [Compound 5]	< 1000	< 1000
C[C@@H]1CN(c2ccc(C#N)c3nccnc23)C[C@@H]1NC(=O)CC1CCN(C)C1 (single isomer, unassigned) [Compound 6]	< 1000	< 1000
C[C@@H]1CN(c2ccc(C#N)c3nccnc23)C[C@@H]1NC(=O)CC1CCN(C)CC1(F)F (single isomer, unassigned) [Compound 11]	< 1000	< 1000
C[C@@H]1CN(c2ccc(C#N)c3nccnc23)C[C@@H]1NC(=O)CC1CCN(C)CC1(F)F (single isomer, unassigned) [Compound 12]	< 1000	< 1000
C[C@@H]1CN(c2ccc(C#N)c3nccnc23)C[C@@H]1NC(=O)C(O)C1CC1 (single isomer, unassigned) [Compound 13]	> 10000	1000 to 10000
C[C@@H]1CN(c2ccc(C#N)c3nccnc23)C[C@@H]1NC(=O)C(O)C1CC1 (single isomer, unassigned) [Compound 14]	1000 to 10000	< 1000
C[C@@H]1CN(c2ccc(C(F)(F)F)c3ncccc23)C[C@@H]1NC(=O)CC1CCN(C)CC1(F)F (single isomer, unassigned) [Compound 28]	1000 to 10000	1000 to 10000
Cc1ccc(N2C[C@@H](C)[C@@H](NC(=O)CC3CCCN(C)C3)C2)c2cccnc12 (single isomer, unassigned) [Compound 35]	1000 to 10000	1000 to 10000

The remaining lines, values ahead:

IC50 [1] [nM]	IC50 [2] [nM]	Structure (SMILES)
< 1000	< 1000	C[C@@H]1CN(c2ccc(C(F)(F)F)c3ncccc23)C[C@@H]1NC(=O)CC1CCCN(C)C1 (single isomer, unassigned) [Compound 19]
1000 to 10000	< 1000	C[C@@H]1CN(c2ccc(C(F)(F)F)c3ncccc23)C[C@@H]1NC(=O)CC1CCCN(C)C1 (single isomer, unassigned) [Compound 20]
< 1000	< 1000	C[C@@H]1CN(c2ccc(C(F)(F)F)c3ncccc23)C[C@@H]1NC(=O)CC1CCN(C)C1 (single isomer, unassigned) [Compound 21]
< 1000	< 1000	C[C@@H]1CN(c2ccc(C(F)(F)F)c3ncccc23)C[C@@H]1NC(=O)CC1CCN(C)C1 (single isomer, unassigned) [Compound 22]
1000 to 10000	1000 to 10000	C[C@@H]1CN(c2ccc(C(F)(F)F)c3ncccc23)C[C@@H]1NC(=O)CC1CCN(C)CC1(F)F (single isomer, unassigned) [Compound 27]
> 10000	1000 to 10000	C[C@@H]1CN(c2ccc(C(F)(F)F)c3ncccc23)C[C@@H]1NC(=O)C(O)C1CC1 (single isomer, unassigned) [Compound 29]
1000 to 10000	1000 to 10000	C[C@@H]1CN(c2ccc(C(F)(F)F)c3ncccc23)C[C@@H]1NC(=O)C(O)C1CC1 (single isomer, unassigned) [Compound 30]
1000 to 10000	< 1000	Cc1ccc(N2C[C@@H](C)[C@@H](NC(=O)CC3CCCN(C)C3)C2)c2cccnc12 (single isomer, unassigned) [Compound 36]
1000 to 10000	< 1000	Cc1ccc(N2C[C@@H](C)[C@@H](NC(=O)CC3CCN(C)C3)C2)c2cccnc12 (single isomer, unassigned) [Compound 37]
1000 to 10000	< 1000	Cc1ccc(N2C[C@@H](C)[C@@H](NC(=O)CC3CCN(C)C3)C2)c2cccnc12 (single isomer, unassigned) [Compound 38]
